The text below walks through data of PubChem BioAssay (NCI).

Among the test systems are OVCAR-5 ovarian; PC-3 prostate; HOP-92 NSCLC; LOX IMVI melanoma; UACC-257 melanoma; HCC-2998 colon; MOLT-4 leukemia; EKVX NSCLC; HT29 colon; SN12C renal.
Experiment in all cases: growth of human tumour cells (NCI), 48 h

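Briefly, cells in 96-well plates were exposed to five compound concentrations for 48 h, and endpoints were estimated by linear interpolation. GI50 = concentration required for 50% inhibition of growth. Definition used: TGI = concentration required for complete inhibition of growth.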

Take `COc1cc2cc(Oc3ccc(NC(=O)Nc4ccc(F)c(C(F)(F)F)c4)cc3)c(C)nc2cc1OCCN1CCCCC1`: the GI50 with OVCAR-5 ovarian was 1.72 µM; in the assay on PC-3 prostate, 1.45 µM; in the assay with HOP-92 NSCLC, 1.52 µM. Moreover, the TGI with OVCAR-5 ovarian was determined as 3.1 µM; with PC-3 prostate it was 3.05 µM; in the assay with HOP-92 NSCLC it was 3.02 µM.
`CCOC(=O)c1ncoc1[C@H]1COC(C)(C)O1`: the TGI in the assay on LOX IMVI melanoma, with UACC-257 melanoma, with HCC-2998 colon, with OVCAR-5 ovarian, with MOLT-4 leukemia and in the assay on EKVX NSCLC was above 100 µM throughout. In addition, the TGI with HT29 colon and in the assay on SN12C renal was above 100 µM each time.
`O=C(c1ccccc1)c1nn(-c2ccc(Cl)cc2)c2nc3nc(-c4ccccc4)cc(=O)n3nc12`: the GI50 in the assay on LOX IMVI melanoma is 28.1 µM; with UACC-257 melanoma it was 70.7 µM; in the assay on HCC-2998 colon, 29.7 µM; in the assay on MOLT-4 leukemia it was 37.9 µM; in the assay with PC-3 prostate, 39.3 µM; in the assay with EKVX NSCLC, 30.3 µM. The results for the GI50 with HT29 colon, with HOP-92 NSCLC and in the assay on SN12C renal were 33.1 µM, 22.1 µM and 24 µM, respectively. Also, the TGI in the assay with LOX IMVI melanoma was above 100 µM; in the assay with UACC-257 melanoma, above 100 µM; with HCC-2998 colon, 66.5 µM; in the assay on MOLT-4 leukemia, above 100 µM; in the assay on PC-3 prostate it was above 100 µM; in the assay with EKVX NSCLC it was above 100 µM. Besides, the TGI is above 100 µM in the assay with HT29 colon, 74.7 µM with HOP-92 NSCLC and 59.8 µM in the assay on SN12C renal.
